Tested on: mRNA for UGCG in the mouse preputial gland
Conditions: gonadectomized male mice, medium-term treatment, effect visible at 96 hours
Description: The expression of the genes was analyzed on an Affymetrix station (microfluidic model; hybridization oven; scanner; computer) following the protocols provided by the company. Briefly, the total RNA isolated from the tissues is transcribed to cDNA. From the double-stranded cDNA, a cRNA labeled with biotin is synthesized using T7 polymerase and a precursor NTP conjugated to biotin. The cRNAs are then fragmented to small sized fragments. All the molecular biology steps are checked using the Agilent “Lab on a chip” system in order to confirm the good efficiencies of the enzymatic reactions. The Affymetrix chip is hybridized with the biotinylated cRNA, rinsed and then fluorescence labeled using a fluorophore conjugated to streptavidin. After washings, the chip is scanned and the results are calculated using the MAS5 software provided by Affymetrix. An expression value is obtained for each gene as well as the indication of the significance of the value obtained.
B. Male mice were gonadectomized and treated with the vehicle or DHT. The preputial glands were removed for a period ranging up to 4 days (androgenic treatment alone—observation of a short-term kinetics). The RNA was isolated and the expression of the genes was analyzed by the Affymetrix technique.

C[C@]12CCC(=O)C[C@@H]1CC[C@@H]1[C@@H]2CC[C@]2(C)[C@@H](O)CC[C@@H]12 [DHT, Dihydrotestosterone]
mRNA for UGCG in the mouse preputial gland: reduced

— patent publication US20100028878A1, “Modulators of UDP-glucose ceramide glucosyltransferase for treating acne or hyperkeratinization” (GALDERMA RESEARCH & DEVELOPMENT, priority 2006, published 2010)
